ChEMBL document CHEMBL3885881, “DrugMatrix”

Species: Rattus norvegicus
Assay: DrugMatrix - Regimen: Daily Repeat
Assay type: toxicity, organism-based, Sprague-Dawley
Set-up: regimen Daily Repeat, gender Male, age 6-8 weeks
Settings: in vivo, po, route oral GAVAGE, vehicle 100 % WATER; for ABSOLUTE BASOPHIL / ABSOLUTE EOSINOPHIL / ABSOLUTE LYMPHOCYTE / ABSOLUTE MONOCYTE / ABSOLUTE SEGMENTED NEUTROPHIL / BASOPHIL / EOSINOPHIL / ERYTHROCYTE COUNT / HEMATOCRIT / HEMOGLOBIN / LEUKOCYTE COUNT / LYMPHOCYTE / MEAN CORPUSCULAR HEMOGLOBIN / MEAN CORPUSCULAR HEMOGLOBIN CONCENTRATION / MEAN CORPUSCULAR VOLUME / MONOCYTE / NEUTROPHIL / NUCLEATED RED BLOOD CELLS / PLATELET COUNT: tissue Blood; for ALANINE AMINOTRANSFERASE / ALBUMIN / ALKALINE PHOSPHATASE / ASPARTATE AMINOTRANSFERASE / BLOOD UREA NITROGEN / CARBON DIOXIDE / CHLORIDE / CHOLESTEROL / CREATINE PHOSPHOKINASE / CREATININE / GLUCOSE / LACTATE DEHYDROGENASE / LIPASE / PHOSPHORUS / POTASSIUM / SODIUM / TOTAL BILIRUBIN / TOTAL PROTEIN / URIC ACID: tissue Plasma
[1] = 0 mg/kg, 72 h, dose level Control, time 3 day
[2] = 0 mg/kg, 120 h, dose level Control, time 5 day
[3] = 900 mg/kg, 72 h, dose level Low, time 3 day

## Clc1ccc(C(c2ccccc2Cl)C(Cl)Cl)cc1 (centres undefined) [MITOTANE]
[1]
  ABSOLUTE BASOPHIL: 0 CELLS/uL
  ABSOLUTE EOSINOPHIL: 58.83 CELLS/uL
  ABSOLUTE LYMPHOCYTE: 11823.5 CELLS/uL
  ABSOLUTE MONOCYTE: 169 CELLS/uL
  ABSOLUTE SEGMENTED NEUTROPHIL: 815.33 CELLS/uL
  BASOPHIL: 0%
  EOSINOPHIL: 0.5%
  ERYTHROCYTE COUNT: 5.52 x10E6/uL
  HEMATOCRIT: 35.77%
  HEMOGLOBIN: 14.28 G/DL
  LEUKOCYTE COUNT: 12.87 x10E3/uL
  LYMPHOCYTE: 91.67%
  MEAN CORPUSCULAR HEMOGLOBIN: 25.92 pg
  MEAN CORPUSCULAR HEMOGLOBIN CONCENTRATION: 39.95 G/DL
  MEAN CORPUSCULAR VOLUME: 64.85 fL
  MONOCYTE: 1.33%
  NEUTROPHIL: 6.5%
  NUCLEATED RED BLOOD CELLS: 0 /100WBC
  PLATELET COUNT: 1246.17 x10E3/uL
  ALANINE AMINOTRANSFERASE: 66 u/L
  ALBUMIN: 4.25 G/DL
  ALKALINE PHOSPHATASE: 416 u/L
  ASPARTATE AMINOTRANSFERASE: 106.17 u/L
  BLOOD UREA NITROGEN: 12.67 mg/dL
  CARBON DIOXIDE: 31.83 mmol/L
  CHLORIDE: 102.5 MEQ/L
  CHOLESTEROL: 69 mg/dL
  CREATINE PHOSPHOKINASE: 601.83 u/L
  CREATININE: 0.18 mg/dL
  GLUCOSE: 154.5 mg/dL
  LACTATE DEHYDROGENASE: 301.83 u/L
  LIPASE: 11.17 u/L
  PHOSPHORUS: 12.08 mg/dL
  POTASSIUM: 6.12 MEQ/L
  SODIUM: 145.2 MEQ/L
  TOTAL BILIRUBIN: 0.17 mg/dL
  TOTAL PROTEIN: 6.1 G/DL
  URIC ACID: 1.57 mg/dL
[2]
  ABSOLUTE BASOPHIL: 0 CELLS/uL
  ABSOLUTE EOSINOPHIL: 19.33 CELLS/uL
  ABSOLUTE LYMPHOCYTE: 12577.83 CELLS/uL
  ABSOLUTE MONOCYTE: 106.33 CELLS/uL
  ABSOLUTE SEGMENTED NEUTROPHIL: 896.5 CELLS/uL
  BASOPHIL: 0%
  EOSINOPHIL: 0.17%
  ERYTHROCYTE COUNT: 5.84 x10E6/uL
  HEMATOCRIT: 36.88%
  HEMOGLOBIN: 14.48 G/DL
  LEUKOCYTE COUNT: 13.6 x10E3/uL
  LYMPHOCYTE: 92.17%
  MEAN CORPUSCULAR HEMOGLOBIN: 24.85 pg
  MEAN CORPUSCULAR HEMOGLOBIN CONCENTRATION: 39.3 G/DL
  MEAN CORPUSCULAR VOLUME: 63.23 fL
  MONOCYTE: 0.83%
  NEUTROPHIL: 6.83%
  NUCLEATED RED BLOOD CELLS: 0 /100WBC
  PLATELET COUNT: 1223.5 x10E3/uL
  ALANINE AMINOTRANSFERASE: 55.33 u/L
  ALBUMIN: 4.08 G/DL
  ALKALINE PHOSPHATASE: 355.5 u/L
  ASPARTATE AMINOTRANSFERASE: 87.67 u/L
  BLOOD UREA NITROGEN: 15.33 mg/dL
  CARBON DIOXIDE: 33.83 mmol/L
  CHLORIDE: 99.67 MEQ/L
  CHOLESTEROL: 72.17 mg/dL
  CREATINE PHOSPHOKINASE: 268.33 u/L
  CREATININE: 0.15 mg/dL
  GLUCOSE: 152.5 mg/dL
  LACTATE DEHYDROGENASE: 212.67 u/L
  LIPASE: 10.83 u/L
  PHOSPHORUS: 11.65 mg/dL
  POTASSIUM: 6.73 MEQ/L
  SODIUM: 142.43 MEQ/L
  TOTAL BILIRUBIN: 0.23 mg/dL
  TOTAL PROTEIN: 6.07 G/DL
  URIC ACID: 1.7 mg/dL
[3]
  ABSOLUTE BASOPHIL: 0 CELLS/uL
  ABSOLUTE EOSINOPHIL: 0 CELLS/uL
  ABSOLUTE LYMPHOCYTE: 16524 CELLS/uL
  ABSOLUTE MONOCYTE: 175 CELLS/uL
  ABSOLUTE SEGMENTED NEUTROPHIL: 1001 CELLS/uL
  BASOPHIL: 0%
  EOSINOPHIL: 0%
  ERYTHROCYTE COUNT: 5.49 x10E6/uL
  HEMATOCRIT: 34.53%
  HEMOGLOBIN: 13.73 G/DL
  LEUKOCYTE COUNT: 17.7 x10E3/uL
  LYMPHOCYTE: 93.33%
  MEAN CORPUSCULAR HEMOGLOBIN: 25.03 pg
  MEAN CORPUSCULAR HEMOGLOBIN CONCENTRATION: 39.8 G/DL
  MEAN CORPUSCULAR VOLUME: 62.9 fL
  MONOCYTE: 1%
  NEUTROPHIL: 5.67%
  NUCLEATED RED BLOOD CELLS: 0 /100WBC
  PLATELET COUNT: 1289.67 x10E3/uL
  ALANINE AMINOTRANSFERASE: 54 u/L
  ALBUMIN: 4.23 G/DL
  ALKALINE PHOSPHATASE: 331.33 u/L
  ASPARTATE AMINOTRANSFERASE: 74.67 u/L
  BLOOD UREA NITROGEN: 13 mg/dL
  CARBON DIOXIDE: 33.67 mmol/L
  CHLORIDE: 101.67 MEQ/L
  CHOLESTEROL: 70.33 mg/dL
  CREATINE PHOSPHOKINASE: 271 u/L
  CREATININE: 0.45 mg/dL
  GLUCOSE: 144.67 mg/dL
  LACTATE DEHYDROGENASE: 135 u/L
  LIPASE: 12.67 u/L
  PHOSPHORUS: 12.8 mg/dL
  POTASSIUM: 6.89 MEQ/L
  SODIUM: 145.93 MEQ/L
  TOTAL BILIRUBIN: 0.1 mg/dL
  TOTAL PROTEIN: 6.03 G/DL
  URIC ACID: 1.6 mg/dL
